“Also recorded” adds a separate entry of the source.

Test [1] deals with p53. Nature of the test: Effect of (+)-avrainvillamide incubation on p53/nucleophosmin, LNCaP cells (Western-blot). The format is cell-based, human. The note with it: 24 h. How it is done:
(§1) Four 6-well plates (two for each cell line) were charged with 6 mL per well of cell suspension at 2×10^5 cells/mL. […] The following day, stock solutions of (+)-avrainvillamide (1) in fresh cell culture medium were prepared as indicated below:
(§2) To each 6-mL sample, a 200-μL aliquot of the appropriate stock solution was added, resulting in a final concentration of 0-4 μM (+)-avrainvillamide (1). The samples were returned to the incubator (37° C., 5% CO2) for 24 h.
(§3) The cells were resuspended in 1 mL PBS and mixed thoroughly. A 500-μL aliquot from each sample was transferred to a fresh 1.5-mL centrifuge tube. All the samples were centrifuged (5 min at 500×g) and the supernatant was discarded. The resulting 20 samples (10 samples of T-47D cells, treated with 0-4 μM (+)-avrainvillamide, and 10 samples of LNCaP cells, treated with 0-4 μM (+)-avrainvillamide (1), where each sample contained the number of cells from 1 well of a 6-well plate) were separated into two groups. One group of samples was lysed in RIPA buffer (see below) to prepare a series of whole-cell lysates. The other group of samples was first treated with sucrose-hypotonic buffer to prepare a series of cytosolic lysates. The remaining pellets were washed and treated with RIPA buffer to prepare a series of nuclear-enriched lysates (see below).

Another test deals with T1, exportin-1 (XPO1) (Homo sapiens, UniProt O14980).
T1 construct: endogenous in cells; host or cells: T-47D lysate
Kind of test: Competitive binding affinity-isolation with probe 5 in T-47D lysates, exportin-1. To be noted: 10 μM probe 5, 100 μM inhibitor. From the text: (§4) The supernatant was discarded.
(§5) See above for solution preparation.

The next test concerns the target T2, peroxiredoxin 1 (PRX1) (Homo sapiens, UniProt Q06830).
T2 construct: endogenous in cells; host or cells: T-47D lysate
Kind of test: Competitive binding affinity-isolation with probe 5 in T-47D lysates, peroxiredoxin 1. To be noted: 10 μM probe 5, 100 μM inhibitor.
Excerpt: as §4, §5

The test system of a further test is proteins of T-47D cells. Kind of test: Affinity-isolation from T-47D cells, LC-MS/MS analysis of proteins. The note with it: narrower region of the gel; equal concentrations.
For test [2] the following is noted: previous report: 48-h incubation, MTS/PMS; cited from earlier work.
The test system of test [3] is HeLa S3 cells. Kind of test: Apoptosis in HeLa S3 cells (Yo-Pro cell permeability, annexin-binding). The note with it: Yo-Pro cell permeability and annexin-binding experiments. It counts as cell-based, human.
The next test has as its system T-47D cells. Nature of the test: Cell cycle effects in T-47D cells. It counts as cell-based, human.
A further test concerns the target nucleophosmin (Homo sapiens, UniProt P06748). Nature of the test: Competitive binding affinity-isolation with probe 5 in T-47D lysates, nucleophosmin.
In test [4] the test system is HeLa S3 cells. Nature of the test: Transfection/apoptosis experiments in nucleophosmin-depleted HeLa S3 cells. It counts as cell-based, human. The note with it: 24 h, Yo-Pro iodide/propidium iodide flow cytometry. The method, then:
The concentration of the cell suspension was determined using a hemacytometer, and a suspension of 1×10^5 cells/mL was prepared.
A siRNA targeting NPM1.1 (Applied Biosystems, Cat. No. AM16708; ID 143640; 11.4 μL from a 50 μM stock solution) was added to Opti-MEM (938.6 μL). At the same time, a control siRNA (Applied Biosystems, Cat. No. AM4611; 11.4 μL from a 50 μM stock) was similarly added to Opti-MEM (938.6 μL).
The culture flasks were rinsed with an additional 5 mL medium, which was likewise added to the centrifuge tubes.
The concentration of the cell suspensions was determined using a hemacytometer. Over the course of the 2 d transfection period, both the transfected and mock-transfected cells grew ˜4-fold.
12-well plates were charged with 3 mL per well of suspensions of the transfected or mock-transfected cells, at 2.5×10^4 cells per mL. […] The following day, solutions of cell culture medium containing (+)-avrainvillamide or vehicle control were prepared. 500-μL aliquots of these solutions were added to the 3-mL samples. The treated samples were returned to the incubator (37° C., 5% CO2) for 24 h.
The supernatant was discarded, and the samples were cooled on ice. Apoptosis detection buffer (500 μL; see above for preparation) was added to each sample. […]
Each sample was analyzed on an LSRII flow cytometer, with 20,000 events recorded per sample. […]

The subject of a further test is LNCaP and T-47D cells. Nature of the test: Western blot for apoptotic markers in LNCaP and T-47D cells. It counts as cell-based, human. In general terms: Immunoblotting shows a protein as a band on a membrane.
Test [5] relates to p53. Nature of the test: Effect of (+)-avrainvillamide incubation on p53/nucleophosmin, T-47D cells (Western-blot). The format is cell-based, human. To be noted: 24 h. The method, then: as §1, §2, §3
The subject of test [6] is MALME-3M and MALME-3 cells. Kind of test: Selectivity assay, malignant melanoma MALME-3M versus fibroblast MALME-3. The format is cell-based. The note with it: for selectivity factor, melanoma cells relative to fibroblast control (LC25, 25 percent cell death, estimate of GI50): MALME-3M versus MALME-3. How it is done: […]. A cell line from a healthy fibroblast from the same patient has also been deposited with the American Type Cell Culture Corporation (ATCC). Fresh stockes of both MALME-3M and MALME-3 from ATCC. Avrainvillamide was test against the two cells lines at the same time, taking all possible precautions to ensure that both sets of samples were treated identically. […] As a measure of cytotoxicity and antiproliferative activity, we calculated both LC50 and LC25 (as an estimate of GI50).
The 9.7-fold selectivity at 25 percent cell death is representative of at least a modest degree of selectivity. For comparison, cytochalsine B and geldanamycin were analyzed in identical experiments. Cytochalasine B is a non-selective cytotoxic agent for which a selectivity factor of 0.2 at 25 percent cell death was observed. Geldanamycin is known to be a potent, selective inhibitor of tumor cell growth for which a selectivity factor of >100 at 25 percent cell death was observed.

On to `CC1(C)C=Cc2c(ccc3c2[N+]([O-])=C2C3=C[C@@]34NC(=O)C5(CCCN5C3=O)CC4C2(C)C)O1` (single isomer, unassigned; (+)) [compound 1, (+)-Avrainvillamide], for which the “concentration giving a substantial increase in cellular p53” value with p53 [1] and in the test with p53 [5] (Western-blot) was 500 nM in each case. The “blocking of the binding of probe 5 to exportin-1 (XPO1)” value at exportin-1 (XPO1) was “capable of blocking”. Moreover, the “blocking of the binding of probe 5 to peroxiredoxin 1 (PRX1)” value on peroxiredoxin 1 (PRX1) was “capable of blocking”. In addition, the “detection of nucleophosmin by LC-MS/MS after affinity isolation” value in the test with proteins of T-47D cells was “not detected”. In [2], the “fold more potent than the unnatural enantiomer (antiproliferative activity)” value is recorded as approximately 9 fold. Besides, in the test with HeLa S3 cells [3], the “cell death in HeLa S3 cells” value is on record as “cell death through apoptosis”. Moreover, in the test with T-47D cells, the “cell cycle accumulatory effects” value is “immediate decrease in the number of cells in S-phase, followed by an increase in G2/M cells”. Moreover, the “binding of nucleophosmin to probe 5 in the presence of a 10-fold higher concentration of competitor” value on nucleophosmin (10 μM probe 5, 100 μM competitor, nuclear-enriched and whole-cell T-47D lysates) is reported as “inhibited; also recorded: most effective”. Further, the “concentration required for inhibition of probe 5-nucleophosmin binding” value on nucleophosmin (T-47D lysate) was 100 µM. The “inhibition of binding of nucleophosmin to probe 5 by analogues (FIG. 4)” value on nucleophosmin (T-47D nuclear-enriched lysate) is listed as “inhibited essentially equivalently”. The “apoptosis in HeLa S3 cells reduced in nucleophosmin (siRNA) relative to mock-transfected cells” value with HeLa S3 cells [4] is on record as “enhanced sensitivity”. Also, in the test with LNCaP and T-47D cells, the “apoptotic markers (Western blot)” value is given as “appearance of pro-apoptotic factors”. In addition, the “cellular p53 at the highest concentration” value with p53 [5] (4 μM) is given as “reduction in cellular p53”. The “activity against MALME-3M cells” value in test [6] (MALME-3M) is listed as “nanomolar activity”. Besides, the results for the “selectivity factor, melanoma cells relative to fibroblast control (LC25, 25 percent cell death, estimate of GI50)” value in test [6] (listed as Avrainvillamide) and in [6] (listed as avrainvillamide) were 9.7 and approximately 10, respectively.

Source of the values: patent US20110105515A1, “TARGETING THE ONCOPROTEIN NUCLEOPHOSMIN” (President and Fellows of Harvard College, priority 2007, published 2011).
